{
  "source": "patent US9469650B2",
  "about": "“Melampomagnolide B derivatives” (BOARD OF TRUSTEES OF THE UNIVERSITY OF ARKANSAS, priority 2013, dated 2016)",
  "key": {"RXF 393": {"test_system": "RXF 393", "test": "panel of 60 human tumor cell lines, growth inhibition (Renal Cancer)", "details": "RXF 393; Log10 Concentration −8.0"}, "SN12C": {"test_system": "SN12C", "test": "panel of 60 human tumor cell lines, growth inhibition (Renal Cancer)"}, "MCF7": {"test_system": "MCF7", "test": "panel of 60 human tumor cell lines, growth inhibition (Breast Cancer)", "details": "for GI50: MCF7, MCF7; for Percent Growth: MCF7"}, "MDA-MB-231/ATCC": {"test_system": "MDA-MB-231/ATCC", "test": "panel of 60 human tumor cell lines, growth inhibition (Breast Cancer)", "details": "for Percent Growth: MDA-MB-231/ATCC"}, "SK-OV-3": {"test_system": "SK-OV-3", "test": "panel of 60 human tumor cell lines, growth inhibition (Ovarian Cancer)"}, "DU-145": {"test_system": "DU-145", "test": "panel of 60 human tumor cell lines, growth inhibition (Prostate Cancer)"}, "HOP-62": {"test_system": "HOP-62", "test": "panel of 60 human tumor cell lines, growth inhibition (Non-Small Cell Lung Cancer)"}, "HOP-92": {"test_system": "HOP-92", "test": "panel of 60 human tumor cell lines, growth inhibition (Non-Small Cell Lung Cancer)", "details": "for Percent Growth: HOP-92; for GI50: HOP-92, HOP-92"}, "NCI-H226": {"test_system": "NCI-H226", "test": "panel of 60 human tumor cell lines, growth inhibition (Non-Small Cell Lung Cancer)"}, "NCI-H460": {"test_system": "NCI-H460", "test": "panel of 60 human tumor cell lines, growth inhibition (Non-Small Cell Lung Cancer)"}},
  "data": [
    {"smiles": "C=C1C(=O)O[C@H]2[C@H]1CC/C(COC(=O)NCCc1ccccn1)=C\\CC[C@@]1(C)O[C@@H]21", "note": "[JVM 61, ((1aR,7aS,10aS,10bS,E)-1a-methyl-8-methylene-9-oxo-1a,2,3,6,7,7a,8,9,10a,10b-decahydrooxireno[2′,3′:9,10]cyclodeca[1,2-b]furan-5-yl)methyl-(2-(pyridin-2-yl)ethyl)carbamate]", "values": [
      {"measurement": "Percent Growth", "setting": "RXF 393", "value": 101, "unit": "%"},
      {"measurement": "GI50", "setting": "SN12C; Homo sapiens", "value": 6.61, "unit": "µM"},
      {"measurement": "CC50", "setting": "SN12C; Homo sapiens, read-out: LC50", "value": 66.3, "unit": "µM"},
      {"measurement": "IC (TGI)", "setting": "SN12C; Homo sapiens, read-out: TGI", "value": 25.4, "unit": "µM"},
      {"measurement": "Percent Growth", "setting": "SN12C; Log10 Concentration −4.0", "value": "−70", "unit": "%"},
      {"measurement": "Percent Growth", "setting": "SN12C; Log10 Concentration −5.0", "value": 41, "unit": "%"},
      {"measurement": "Percent Growth", "setting": "SN12C; Log10 Concentration −6.0", "value": 91, "unit": "%"},
      {"measurement": "Percent Growth", "setting": "SN12C; Log10 Concentration −7.0", "value": 92, "unit": "%"},
      {"measurement": "Percent Growth", "setting": "SN12C; Log10 Concentration −8.0", "value": 95, "unit": "%"},
      {"measurement": "GI50", "setting": "MCF7; Homo sapiens", "value": 2.65, "unit": "µM"},
      {"measurement": "GI50", "setting": "MCF7; Homo sapiens, 5-dose assay", "value": 2.85, "unit": "µM"},
      {"measurement": "CC50", "setting": "MCF7; Homo sapiens, MCF7, read-out: LC50", "value": 61.4, "unit": "µM"},
      {"measurement": "IC (TGI)", "setting": "MCF7; Homo sapiens, MCF7, read-out: TGI", "value": 13, "unit": "µM"},
      {"measurement": "Percent Growth", "setting": "MCF7; Log10 Concentration −4.0", "value": "−66", "unit": "%"},
      {"measurement": "Percent Growth", "setting": "MCF7; Log10 Concentration −5.0", "value": 8, "unit": "%"},
      {"measurement": "Percent Growth", "setting": "MCF7; Log10 Concentration −6.0", "value": 85, "unit": "%"},
      {"measurement": "Percent Growth", "setting": "MCF7; Log10 Concentration −8.0", "value": 91, "unit": "%"},
      {"measurement": "GI50", "setting": "MDA-MB-231/ATCC; Homo sapiens, MDA-MB-231", "value": 11.4, "unit": "µM"},
      {"measurement": "CC50", "setting": "MDA-MB-231/ATCC; Homo sapiens, MDA-MB-231, read-out: LC50", "value": 56.4, "unit": "µM"},
      {"measurement": "IC (TGI)", "setting": "MDA-MB-231/ATCC; Homo sapiens, MDA-MB-231, read-out: TGI", "value": 25.4, "unit": "µM"},
      {"measurement": "Percent Growth", "setting": "MDA-MB-231/ATCC; Log10 Concentration −4.0", "value": "−86", "unit": "%"},
      {"measurement": "Percent Growth", "setting": "MDA-MB-231/ATCC; Log10 Concentration −5.0", "value": 58, "unit": "%"},
      {"measurement": "Percent Growth", "setting": "MDA-MB-231/ATCC; Log10 Concentration −6.0", "value": 96, "unit": "%"},
      {"measurement": "Percent Growth", "setting": "MDA-MB-231/ATCC; Log10 Concentration −7.0", "value": 100, "unit": "%"},
      {"measurement": "Percent Growth", "setting": "MDA-MB-231/ATCC; Log10 Concentration −8.0", "value": 103, "unit": "%"},
      {"measurement": "GI50", "setting": "SK-OV-3; Homo sapiens, SK-OV-3", "value": 26.2, "unit": "µM"},
      {"measurement": "CC50", "setting": "SK-OV-3; Homo sapiens, SK-OV-3, read-out: LC50", "value": "> 100", "unit": "µM"},
      {"measurement": "IC (TGI)", "setting": "SK-OV-3; Homo sapiens, SK-OV-3, read-out: TGI", "value": 97.4, "unit": "µM"},
      {"measurement": "Percent Growth", "setting": "SK-OV-3; SK-OV-3, Log10 Concentration −4.0", "value": "−1", "unit": "%"},
      {"measurement": "Percent Growth", "setting": "SK-OV-3; SK-OV-3, Log10 Concentration −5.0", "value": 87, "unit": "%"},
      {"measurement": "Percent Growth", "setting": "SK-OV-3; SK-OV-3, Log10 Concentration −6.0", "value": 103, "unit": "%"},
      {"measurement": "Percent Growth", "setting": "SK-OV-3; SK-OV-3, Log10 Concentration −7.0", "value": 187, "unit": "%"},
      {"measurement": "Percent Growth", "setting": "SK-OV-3; SK-OV-3, Log10 Concentration −8.0", "value": 106, "unit": "%"},
      {"measurement": "Percent Growth", "setting": "DU-145; DU-145, Log10 Concentration −4.0", "value": "−87", "unit": "%"},
      {"measurement": "Percent Growth", "setting": "DU-145; DU-145, Log10 Concentration −5.0", "value": 26, "unit": "%"},
      {"measurement": "Percent Growth", "setting": "DU-145; DU-145, Log10 Concentration −6.0", "value": 97, "unit": "%"},
      {"measurement": "Percent Growth", "setting": "DU-145; DU-145, Log10 Concentration −7.0", "value": 108, "unit": "%"},
      {"measurement": "Percent Growth", "setting": "DU-145; DU-145, Log10 Concentration −8.0", "value": 102, "unit": "%"},
      {"measurement": "GI50", "setting": "DU-145; Homo sapiens, DU-145", "value": 4.59, "unit": "µM"},
      {"measurement": "CC50", "setting": "DU-145; Homo sapiens, DU-145, read-out: LC50", "value": 47, "unit": "µM"},
      {"measurement": "IC (TGI)", "setting": "DU-145; Homo sapiens, DU-145, read-out: TGI", "value": 16.9, "unit": "µM"},
      {"measurement": "Percent Growth", "setting": "HOP-62; HOP-62, Log10 Concentration −4.0", "value": "−65", "unit": "%"},
      {"measurement": "Percent Growth", "setting": "HOP-62; HOP-62, Log10 Concentration −5.0", "value": 91, "unit": "%"},
      {"measurement": "Percent Growth", "setting": "HOP-62; HOP-62, Log10 Concentration −6.0", "value": 108, "unit": "%"},
      {"measurement": "Percent Growth", "setting": "HOP-62; HOP-62, Log10 Concentration −7.0", "value": 102, "unit": "%"},
      {"measurement": "Percent Growth", "setting": "HOP-62; HOP-62, Log10 Concentration −8.0", "value": 99, "unit": "%"},
      {"measurement": "GI50", "setting": "HOP-62; Homo sapiens, HOP-62", "value": 18.4, "unit": "µM"},
      {"measurement": "CC50", "setting": "HOP-62; Homo sapiens, HOP-62, read-out: LC50", "value": 79.7, "unit": "µM"},
      {"measurement": "IC (TGI)", "setting": "HOP-62; Homo sapiens, HOP-62, read-out: TGI", "value": 38.3, "unit": "µM"},
      {"measurement": "Percent Growth", "setting": "HOP-92; Log10 Concentration −4.0", "value": "−87", "unit": "%"},
      {"measurement": "Percent Growth", "setting": "HOP-92; Log10 Concentration −5.0", "value": 12, "unit": "%"},
      {"measurement": "Percent Growth", "setting": "HOP-92; Log10 Concentration −6.0", "value": 71, "unit": "%"},
      {"measurement": "Percent Growth", "setting": "HOP-92; Log10 Concentration −7.0", "value": 66, "unit": "%"},
      {"measurement": "Percent Growth", "setting": "HOP-92; Log10 Concentration −8.0", "value": 0.2, "unit": "%"},
      {"measurement": "GI50", "setting": "HOP-92; Homo sapiens", "value": 2.25, "unit": "µM"},
      {"measurement": "GI50", "setting": "HOP-92; Homo sapiens, 5-dose assay", "value": 2.25, "unit": "µM"},
      {"measurement": "CC50", "setting": "HOP-92; Homo sapiens, HOP-92, read-out: LC50", "value": 42.2, "unit": "µM"},
      {"measurement": "IC (TGI)", "setting": "HOP-92; Homo sapiens, HOP-92, read-out: TGI", "value": 13.1, "unit": "µM"},
      {"measurement": "GI50", "setting": "NCI-H226; Homo sapiens, NCI-H226", "value": 14.1, "unit": "µM"},
      {"measurement": "CC50", "setting": "NCI-H226; Homo sapiens, NCI-H226, read-out: LC50", "value": 81.3, "unit": "µM"},
      {"measurement": "IC (TGI)", "setting": "NCI-H226; Homo sapiens, NCI-H226, read-out: TGI", "value": 33.8, "unit": "µM"},
      {"measurement": "Percent Growth", "setting": "NCI-H226; NCI-H226, Log10 Concentration −4.0", "value": "−62", "unit": "%"},
      {"measurement": "Percent Growth", "setting": "NCI-H226; NCI-H226, Log10 Concentration −5.0", "value": 70, "unit": "%"},
      {"measurement": "Percent Growth", "setting": "NCI-H226; NCI-H226, Log10 Concentration −6.0", "value": 91, "unit": "%"},
      {"measurement": "Percent Growth", "setting": "NCI-H226; NCI-H226, Log10 Concentration −7.0", "value": 92, "unit": "%"},
      {"measurement": "Percent Growth", "setting": "NCI-H226; NCI-H226, Log10 Concentration −8.0", "value": 94, "unit": "%"},
      {"measurement": "GI50", "setting": "NCI-H460; Homo sapiens, NCI-H460", "value": 14.4, "unit": "µM"},
      {"measurement": "CC50", "setting": "NCI-H460; Homo sapiens, NCI-H460, read-out: LC50", "value": 97.4, "unit": "µM"},
      {"measurement": "IC (TGI)", "setting": "NCI-H460; Homo sapiens, NCI-H460, read-out: TGI", "value": 37.5, "unit": "µM"},
      {"measurement": "Percent Growth", "setting": "NCI-H460; NCI-H460, Log10 Concentration −4.0", "value": "−51", "unit": "%"},
      {"measurement": "Percent Growth", "setting": "NCI-H460; NCI-H460, Log10 Concentration −5.0", "value": 69, "unit": "%"},
      {"measurement": "Percent Growth", "setting": "NCI-H460; NCI-H460, Log10 Concentration −6.0", "value": 102, "unit": "%"},
      {"measurement": "Percent Growth", "setting": "NCI-H460; NCI-H460, Log10 Concentration −7.0", "value": 102, "unit": "%"},
      {"measurement": "Percent Growth", "setting": "NCI-H460; NCI-H460, Log10 Concentration −8.0", "value": 104, "unit": "%"}
    ]}
  ]
}
